Assay results: US11939334B2, “Substituted pyrimido[4,5-b][1,4]diazepines as PLK1 degradation inducers” (UPPTHERA, INC., priority 2021, dated 2024)

Experiments:
PLK1 = target: T1, PLK1 (Homo sapiens, UniProt P53350); assay: Luciferase assay for PLK1 in HeLa LgBit (Plk1-HiBit KI) cell line; format: cell-based; conditions: 300 nM compound, luminescence after 9 hours
T1 construct: endogenous in cells; host or cells: HeLa cells stably expressing LgBit, with CRISPR/Cas9 knock-in of HiBit at the endogenous PLK1 locus
T1 sequence (P53350 whole entry): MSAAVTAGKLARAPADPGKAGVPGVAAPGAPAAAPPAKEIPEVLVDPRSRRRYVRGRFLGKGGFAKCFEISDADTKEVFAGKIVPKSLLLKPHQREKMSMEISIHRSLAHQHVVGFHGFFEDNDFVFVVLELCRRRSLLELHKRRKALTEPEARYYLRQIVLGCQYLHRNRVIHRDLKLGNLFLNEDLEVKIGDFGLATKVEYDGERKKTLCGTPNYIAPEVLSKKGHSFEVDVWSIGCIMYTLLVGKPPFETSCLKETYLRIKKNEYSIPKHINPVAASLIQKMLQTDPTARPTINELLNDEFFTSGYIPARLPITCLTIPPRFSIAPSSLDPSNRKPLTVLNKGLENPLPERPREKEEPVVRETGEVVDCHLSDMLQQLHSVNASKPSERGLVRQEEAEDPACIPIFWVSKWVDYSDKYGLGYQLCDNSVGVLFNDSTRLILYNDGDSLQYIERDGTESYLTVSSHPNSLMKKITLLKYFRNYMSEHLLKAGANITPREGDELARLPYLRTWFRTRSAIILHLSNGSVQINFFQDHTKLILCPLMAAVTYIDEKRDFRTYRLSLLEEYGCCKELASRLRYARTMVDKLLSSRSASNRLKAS
Experimental: 2. Luciferase Assay for PLK1
(1) Preparation and Culture of HeLa LgBit (Plk1-HiBit KI) Cell Line
A HeLa cell line in which the LgBit vector was transfected and expressed stably was prepared. Then, after constructing gRNA and donor to express the HiBit amino acid sequence behind the C-terminal of the Plk1 gene, which was inherent in the cell, it was inserted into the cell together with a vector capable of expressing CRISPR/Cas9. Only the cells in which the insertion was completed and knock-in had progressed were selected, sub-cultured and used.
(2) Treatment of Compounds of the Present Invention and Method of Luciferase Assay
In the case of HeLa LgBit (Plk1-HiBit KI), the compounds were treated after being released after thymidine block, and the process was as follows. Thymidine (Sigma-Aldrich Cat. No. T9250-5G) was completely dissolved in DW and used in the experiment. For thymidine block, the products were treated with 2 mM of thymidine and then incubated for 24 hours. For release and chemical treatment, the medium was suctioned and washed with 1×PBS. TrypLE™ was added and incubated in 37° C. CO2 incubator for 5 min. Cells neutralized by adding complete media were counted through a counter. For each well of a 96-well culture plate (SPL), 3.3×10^4 cells and a total medium volume of 150 μL were seeded and incubated in a CO2 incubator.
Each cell line was incubated in a CO2 incubator for 18 hours, and Endurazine was added to each well to make up 4% of the total volume. After adding the compound of the present invention in a 96-well white plate (SPL) to a concentration of 300 nM, the wavelength of the plate reader (BMG Labtech, CLARIOstar Plus) was set to […], and then the luminescence was tracked in real time.
The results are shown in Table 2 below and FIGS. 1 and 2.
In Table 2, Activity represents the ratio of the luminescence value of each Exemplary Compound treatment group to DMSO treatment group (+++: <0.3, ++ <0.6, + <0.7).

H526 cell line = assay: Cell viability assay for H526 cell line; format: cell-based; conditions: Homo sapiens, NCI-H526, 120 h; H526 cells, 5 days, EZ-Cytox, 0.46-3000 nM
Experimental: 3. Cell Viability Assay for H526 Cell Line
(1) Culture of NCI-H526 Cell Line
(2) Treatment of Compounds of the Present Invention and Method of Cell Viability Assay
After treating the compound to each well to make the total volume of 200 μL, it was cultured in a CO2 incubator (Thermo Fisher Science, Cat. No. 4111) for 5 days.
The absorbance of the completely cultured sample was measured by setting the wavelength of a plate reader (BMG Labtech, CLARIOstar Plus) to […], and was measured after shaking for 3 minutes in a plate reader before measurement.
In Table 3, Activity represents IC50 value of each Exemplary Compound treatment group to H526 cell line (A: <30 nM, B: <50 nM, C: <100 nM, D: <200 nM, E: <400 nM).

[1] = Cell viability assay for MRC-5 cell line; conditions: human
Experimental: Cell Viability Assay for MRC-5 Cell Line
(1) Culture of MRC-5 Cell Line
The MRC-5 cell line was purchased from Korea Cell Line Bank (KCLB), Seoul, Korea. Passage of cultured cells was maintained within P15.
6×10^3 cells were seeded for each well of a 96-well plate (SPL), and the cells were cultured in total volume of 150 μL.
Each well was mixed with a medium and treated, and the volume was set to 50 μL, so that the total volume of each well was 200 μL. Then, it was cultured in 37° C.
The following compounds were used as comparative examples, and the cell viability assay was performed in the same manner as in the compounds of Examples.
(3) Cytotoxicity Experiment
After treating EZ-Cytox (DOGEN, Cat. NO. EZ-3000, Lot. No. DLS2112) 20 μL in each well of completely cultured plate, it was cultured in 37° C. CO2 incubator for 4 hours. […] The data were converted into graphs using the Prism (ver. 9) program.

Row | SMILES | Activity: ratio of the luminescence value of each Exemplary Compound treatment group to DMSO treatment group (PLK1) | IC50 (H526 cell line) | IC50 at 5 days ([1]; MRC-5 cells (normal cell line)) | IC50 at 5 days [1]
1 | COc1cc(C(=O)NC2CCN(C(=O)CCCOc3cccc(C4CCC(=O)NC4=O)c3)CC2)ccc1Nc1ncc2c(n1)N(C(C)C)CC(F)(F)C(=O)N2C (stereo not shown) [Compound 1, 4-((7,7-difluoro-9-isopropyl-5-methyl-6-oxo-6,7,8,9-tetrahydro-5H-pyrimido[4,5-b][1,4]diazepin-2-yl)amino)-N-(1-(4-(3-(2,6-dioxopiperidin-3-yl)phenoxy)butanoyl)piperidin-4-yl)-3-methoxybenzamide] | +++ (+++: <0.3) | < 50 nM | > 10000 nM | 
2 | COc1cc(C(=O)NC2CCN(C(=O)CCN3CCN(c4ccc(C5CCC(=O)NC5=O)cc4)CC3)CC2)ccc1Nc1ncc2c(n1)N(C(C)C)CC(F)(F)C(=O)N2C (stereo not shown) [Compound 2, 4-((7,7-difluoro-9-isopropyl-5-methyl-6-oxo-6,7,8,9-tetrahydro-5H-pyrimido[4,5-b][1,4]diazepin-2-yl)amino)-N-(1-(3-(4-(4-(2,6-dioxopiperidin-3-yl)phenyl)piperazin-1-yl)propanoyl)piperidin-4-yl)-3-methoxybenzamide] | ++ (++ <0.6) | < 30 nM | > 10000 nM | 
3 | COc1cc(C(=O)NC2CCN(C(=O)CCN3CCN(c4ccc(C5CCC(=O)NC5=O)cc4)CC3)CC2)ccc1Nc1ncc2c(n1)N(C(C)C)CC1(CC1)C(=O)N2C (stereo not shown) [Compound 3, N-(1-(3-(4-(4-(2,6-dioxopiperidin-3-yl)phenyl)piperazin-1-yl)propanoyl)piperidin-4-yl)-4-((9′-isopropyl-5′-methyl-6′-oxo-5′,6′,8′,9′-tetrahydrospiro[cyclopropane-1,7′-pyrimido[4,5-b][1,4]diazepin]-2′-yl)amino)-3-methoxybenzamide] | ++ (++ <0.6) | < 100 nM | > 10000 nM | 
4 | COc1cc(C(=O)NC2CCN(C(=O)CCN3CCN(c4cccc(C5CCC(=O)NC5=O)c4)CC3)CC2)ccc1Nc1ncc2c(n1)N(C(C)C)CC(F)(F)C(=O)N2C (stereo not shown) [Compound 4, 4-((7,7-difluoro-9-isopropyl-5-methyl-6-oxo-6,7,8,9-tetrahydro-5H-pyrimido[4,5-b][1,4]diazepin-2-yl)amino)-N-(1-(3-(4-(3-(2,6-dioxopiperidin-3-yl)phenyl)piperazin-1-yl)propanoyl)piperidin-4-yl)-3-methoxybenzamide] | ++ (++ <0.6) | < 30 nM | > 10000 nM | 
5 | COc1cc(C(=O)NC2CC3(CCN(CC4CCN(c5ccc(C6CCC(=O)NC6=O)cc5F)CC4)CC3)C2)ccc1Nc1ncc2c(n1)N(C(C)C)CC(F)(F)C(=O)N2C (stereo not shown) [Compound 13, 4-((7,7-difluoro-9-isopropyl-5-methyl-6-oxo-6,7,8,9-tetrahydro-5H-pyrimido[4,5-b][1,4]diazepin-2-yl)amino)-N-(7-((1-(4-(2,6-dioxopiperidin-3-yl)-2-fluorophenyl)piperidin-4-yl)methyl)-7-azaspiro[3.5]nonan-2-yl)-3-methoxybenzamide] | ++ (++ <0.6) | < 30 nM |  | > 10000 nM

The next lines start with results.

Row | Activity: ratio of the luminescence value of each Exemplary Compound treatment group to DMSO treatment group (PLK1) | SMILES | IC50 (H526 cell line) | IC50 at 5 days ([1]; MRC-5 cells (normal cell line)) | IC50 at 5 days [1]
6 | ++ (++ <0.6) | COc1cc(C(=O)NC2CCN(C(=O)CCN3CCN(c4cccc(C5CCC(=O)NC5=O)c4)CC3)CC2)ccc1Nc1ncc2c(n1)N(C(C)C)CC1(CC1)C(=O)N2C (stereo not shown) [Compound 5, N-(1-(3-(4-(3-(2,6-dioxopiperidin-3-yl)phenyl)piperazin-1-yl)propanoyl)piperidin-4-yl)-4-((9′-isopropyl-5′-methyl-6′-oxo-5′,6′,8′,9′-tetrahydrospiro[cyclopropane-1,7′-pyrimido[4,5-b][1,4]diazepin]-2′-yl)amino)-3-methoxybenzamide] | < 200 nM | > 10000 nM | 
7 | ++ (++ <0.6) | COc1cc(C(=O)NN2CCN(C(=O)CCC3CCN(c4ccc(C5CCC(=O)NC5=O)cc4F)CC3)CC2)ccc1Nc1ncc2c(n1)N(C(C)C)CC(F)(F)C(=O)N2C (stereo not shown) [Compound 11, 4-((7,7-difluoro-9-isopropyl-5-methyl-6-oxo-6,7,8,9-tetrahydro-5H-pyrimido[4,5-b][1,4]diazepin-2-yl)amino)-N-(1-(3-(1-(4-(2,6-dioxopiperidin-3-yl)-2-fluorophenyl)piperidin-4-yl)propanoyl)piperazin-1-yl)-3-methoxybenzamide] | < 50 nM | > 10000 nM | 
8 | ++ (++ <0.6) | COc1cc(C(=O)NN2CCC(CN3CCN(c4ccc(C5CCC(=O)NC5=O)cc4F)CC3)C(F)(F)C2)ccc1Nc1ncc2c(n1)N(C(C)C)CC(F)(F)C(=O)N2C (stereo not shown) [Compound 16, 4-((7,7-difluoro-9-isopropyl-5-methyl-6-oxo-6,7,8,9-tetrahydro-5H-pyrimido[4,5-b][1,4]diazepin-2-yl)amino)-N-(4-((4-(4-(2,6-dioxopiperidin-3-yl)-2-fluorophenyl)piperazin-1-yl)methyl)-3,3-difluoropiperidin-1-yl)-3-methoxybenzamide] | < 100 nM | > 10000 nM | 
9 | ++ (++ <0.6) | COc1cc(C(=O)NN2CC(F)(F)CC2CCN2CCN(c3ccc(C4CCC(=O)NC4=O)cc3F)CC2)ccc1Nc1ncc2c(n1)N(C(C)C)CC(F)(F)C(=O)N2C (stereo not shown) [Compound 17, 4-((7,7-difluoro-9-isopropyl-5-methyl-6-oxo-6,7,8,9-tetrahydro-5H-pyrimido[4,5-b][1,4]diazepin-2-yl)amino)-N-(2-(2-(4-(4-(2,6-dioxopiperidin-3-yl)-2-fluorophenyl)piperazin-1-yl)ethyl)-4,4-difluoropyrrolidin-1-yl)-3-methoxybenzamide] | < 50 nM | > 10000 nM | 
10 | +++ (+++: <0.3) | COc1cc(C(=O)NCC2CC3(CCN(CC4CCN(c5ccc(C6CCC(=O)NC6=O)cc5F)CC4)CC3)C2)ccc1Nc1ncc2c(n1)N(C(C)C)CC(F)(F)C(=O)N2C (stereo not shown) [Compound 30, 4-((7,7-difluoro-9-isopropyl-5-methyl-6-oxo-6,7,8,9-tetrahydro-5H-pyrimido[4,5-b][1,4]diazepin-2-yl)amino)-N-((7-((1-(4-(2,6-dioxopiperidin-3-yl)-2-fluorophenyl)piperidin-4-yl)methyl)-7-azaspiro[3.5]nonan-2-yl)methyl)-3-methoxybenzamide] | < 100 nM |  | 
11 | ++ (++ <0.6) | COc1cc(C(=O)NN2CCC(N3CC4(CCN(c5ccc(C6CCC(=O)NC6=O)cc5F)CC4)C3)CC2)ccc1Nc1ncc2c(n1)N(C(C)C)CC(F)(F)C(=O)N2C (stereo not shown) [Compound 40, 4-((7,7-difluoro-9-isopropyl-5-methyl-6-oxo-6,7,8,9-tetrahydro-5H-pyrimido[4,5-b][1,4]diazepin-2-yl)amino)-N-(4-(7-(4-(2,6-dioxopiperidin-3-yl)-2-fluorophenyl)-2,7-diazaspiro[3.5]nonan-2-yl)piperidin-1-yl)-3-methoxybenzamide] | < 30 nM |  | 
